Reference: patent US8008492B2, “Compounds that act as a vehicle for delivery through the blood-brain barrier and charge delivery vehicle constructions” (priority 2006, dated 2011)

Experiments:
[1] = Parallel artificial membrane permeability assay (PAMPA); type: in vitro ADME, porcine; settings: 200 μM initial, pH 7.4, 4 hours, room temperature; for Effective permeability Pe: triplicate
Excerpt: Parallel artificial membrane permeability assay (PAM PA). The evaluation method chosen is the Parallel Artificial Membrane Permeability Assay (PAMPA), which allows to predict or evaluate only this transport mechanism. In general terms, this method is simple, automatizable with high throughput, has a low cost and require only a small amount of test compound. The PAMPA method originally introduced by Kansy at Roche uses an artificial membrane in the form of filter supported phospholipids bilayers ([…] al., “Physicochemical high throughput screening: Parallel artificial membrane permeability assay in the description of the absorption processes” J. Med. Chem. 1998, vol. 41, pp. 1007-1010). The phospholipid membrane mimics the cell membrane, but has no means for active or paracellular transport of drug molecules. It is a very convenient tool to evaluate the transport of compounds by passive diffusion. This technique allows the evaluation of pure compounds, crudes or even mixtures of compounds. PAMPA assay is used to determine the ability of the BBB shuttle-cargo constructs to cross the BBB by passive diffusion. […] The compound of interest was dissolved to the desired concentration (200 μM). The PAMPA sandwich was separated and the donor well was filled with 200 μL of the compound solution to be studied. The acceptor plate was placed into the donor plate making sure that the underside of membrane was in contact with buffer. 4 μL of mixture of phospholipids (20 mg/mL) in dodecane were added into each well and 200 μL of buffer solution were added to the each acceptor well. The plate was covered and incubated at room temperature in a saturated humidity atmosphere for 4 hours under orbital agitation at 100 rpm. […] The transport was also confirmed by MALDI-TOF spectrometry and HPLC-MS of aliquotes of the acceptor wells. The mixture of phospholipids used is a porcine polar brain lipid extract. […] The effective permeability was calculated using the following equation: [formula] where: • t time (hours) • CA(t) Compound concentration at the acceptor well at time t • CD(t0) Compound concentration at the donor well at 0 h As a control, the transport of propranolol was evaluated in parallel and a mass balance was calculated for all the studied compounds in order to detect if retention in the phospholipids occur. The different compounds were evaluated by PAMPA assay.

[2] = Immobilized artificial membrane chromatography (IAMC); type: physicochemical; settings: isocratic, phosphate buffer pH 7.4 and 20% MeCN
Excerpt: To evaluate the BBB-shuttles and BBB-shuttle-cargo constructs, a chromatographic technique, IAMC (immobilized artificial membrane chromatography) developed by Pidgeon was used (cf. A. Albert, Chemical aspects of selective toxicity. Nature 1958, vol. 182, pp. 421-423). This technique uses phospholipid molecules covalently immobilized to silica particles at high density as the stationary phase. It has been used to purify membrane proteins, to immobilize enzymes and to predict transport across biological barriers. […] IAMC interactions include ionic, lipophilic and hydrogen bonding interactions that can be combined under a parameter known as phospholipophilicity. […] The compounds were detected by UV absorption at 220 nm. […] The retention times (tr) were transformed into capacity factors (kIAM) according to the following equation: kIAM=(tr−t0)/t0, where tr is the retention time of the studied compound and t0 is the retention time of a compound that would not be retained by the column (e.g. citric acid). As a control, propranolol was studied. BBB-shuttles and the BBB-shuttle-cargo constructs were also evaluated by IAMC (Immobilized Artificial Membrane Chromatography), a chromatographic technique that measures the phospholipophilicity of our compounds, their tendency to interact with phosphatidylcholine covalently immobilized. See results in Table 6 and 7.

SMILES | Log Pe ([1]; dopamine constructs) | Effective permeability Pe ([1]; dopamine constructs) | Capacity factor kIAM ([2]; dopamine constructs) | Log Pe ([1]; baicalin constructs) | Effective permeability Pe ([1]; baicalin constructs) | Capacity factor kIAM ([2]; baicalin constructs)
CCCCCCC1C(=O)NC(Cc2ccc(NC(=O)C3OC(Oc4cc5oc(-c6ccccc6)cc(=O)c5c(O)c4O)C(O)C(O)C3O)cc2)C(=O)N1C (centres unmarked) [Compound 5f, DKP Phe(p-NH—CO-baicalin)-N-MeOct] | – | – | – | −6.3 | 4.97 10^−7 cm/s | 10.47
CCCCCCC1C(=O)NC(Cc2ccc(NCC(=O)NCCc3ccc(O)c(O)c3)cc2)C(=O)N1C (centres unmarked) [Compound 6f, DKP Phe(p-NH—CH2—CO—NH-dopamine)-N-MeOct] | −6.5 | 32.1 10^−8 cm/s | 15.47 | – | – | –
O=C(O)[C@H]1O[C@@H](Oc2cc3oc(-c4ccccc4)cc(=O)c3c(O)c2O)[C@H](O)[C@@H](O)[C@@H]1O [Baicalin, baicalin, reference compound] | – | – | – | – | – | 1.24
CN1C(=O)C(Cc2ccc(NC(=O)C3OC(Oc4cc5oc(-c6ccccc6)cc(=O)c5c(O)c4O)C(O)C(O)C3O)cc2)NC(=O)C1Cc1ccccc1 (centres unmarked) [Compound 5a, DKP Phe(p-NH—CO-baicalin)-N-MePhe] | – | – | – | −7.7 | 1.33 10^−8 cm/s | 2.42
CN1C(=O)C(Cc2ccc(NCC(=O)NCCc3ccc(O)c(O)c3)cc2)NC(=O)C1Cc1ccc2ccc3cccc4ccc1c2c34 (centres unmarked) [Compound 6d, DKP Phe(p-NH—CH2—CO—NH-dopamine)-N-Me(1PyrenylAla)] | −7.7 | 1.90 10^−8 cm/s | >100 | – | – | –
CN1C(=O)C(Cc2ccc(NC(=O)C3OC(Oc4cc5oc(-c6ccccc6)cc(=O)c5c(O)c4O)C(O)C(O)C3O)cc2)NC(=O)C1Cc1ccc2ccc3cccc4ccc1c2c34 (centres unmarked) [Compound 5d, DKP Phe(p-NH—CO-baicalin)-N-Me1PyrenylAla] | – | – | – | −8.7 | 0.19 10^−8 cm/s | >100
NCCc1ccc(O)c(O)c1 [Dopamine, dopamine, reference compound] | – | – | 0.30 | – | – | –
CN1C(=O)C(Cc2ccc(NC(=O)C3OC(Oc4cc5oc(-c6ccccc6)cc(=O)c5c(O)c4O)C(O)C(O)C3O)cc2)NC(=O)C1Cc1ccc2ccccc2c1 (centres unmarked) [Compound 5c, DKP Phe(p-NH—CO-baicalin)-N-Me2Nal] | – | – | – | −5.4 | 3.70 10^−6 cm/s | 10.66
CN1C(=O)C(Cc2ccc(NC(=O)C3OC(Oc4cc5oc(-c6ccccc6)cc(=O)c5c(O)c4O)C(O)C(O)C3O)cc2)NC(=O)C1CCc1ccccc1 (centres unmarked) [Compound 5e, DKP Phe(p-NH—CO-baicalin)-N-MeHomoPhe] | – | – | – | −9.3 | 0.05 10^−8 cm/s | 4.15
CN1C(=O)C(Cc2ccc(NC(=O)C3OC(Oc4cc5oc(-c6ccccc6)cc(=O)c5c(O)c4O)C(O)C(O)C3O)cc2)NC(=O)C1CC1CCCCC1 (centres unmarked) [Compound 5b, DKP Phe(p-NH—CO-baicalin)-N-MeCha] | – | – | – | −6.4 | 3.65 10^−7 cm/s | 6.09

More lines, main results first:

Log Pe ([1]; dopamine constructs) | Effective permeability Pe ([1]; dopamine constructs) | Capacity factor kIAM ([2]; dopamine constructs) | SMILES | Log Pe ([1]; baicalin constructs) | Effective permeability Pe ([1]; baicalin constructs) | Capacity factor kIAM ([2]; baicalin constructs)
−7.6 | 2.28 10^−8 cm/s | 0.86 | CN1C(=O)C(Cc2ccc(NCC(=O)NCCc3ccc(O)c(O)c3)cc2)NC(=O)C1CC1CCCCC1 (centres unmarked) [Compound 6b, DKP Phe(p-NH—CH2—CO—NH-dopamine)-N-MeCha] | – | – | –
−7.4 | 3.61 10^−8 cm/s | 3.54 | CN1C(=O)C(Cc2ccc(NCC(=O)NCCc3ccc(O)c(O)c3)cc2)NC(=O)C1Cc1ccccc1 (centres unmarked) [Compound 6a, DKP Phe(p-NH—CH2—CO—NH-dopamine)-N-MePhe] | – | – | –
−6.9 | 11.5 10^−8 cm/s | 16.14 | CN1C(=O)C(Cc2ccc(NCC(=O)NCCc3ccc(O)c(O)c3)cc2)NC(=O)C1Cc1ccc2ccccc2c1 (centres unmarked) [Compound 6c, DKP Phe(p-NH—CH2—CO—NH-dopamine)-N-Me2Nal] | – | – | –
−8.1 | 0.76 10^−8 cm/s | 3.15 | CN1C(=O)C(Cc2ccc(NCC(=O)NCCc3ccc(O)c(O)c3)cc2)NC(=O)C1CCc1ccccc1 (centres unmarked) [Compound 6e, DKP Phe(p-NH—CH2—CO—NH-dopamine)-N-MeHomoPhe] | – | – | –
